Results published in ChEMBL document CHEMBL1201862, “PubChem BioAssay data set” (2004).
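Protocol summary: plate cells (96-well), add compound at 5 concentrations, incubate 48 h, interpolate endpoints linearly. GI50 is the concentration that inhibits growth by half.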 Active and inactive are the calls of the source. No stated cut-off is given here; in the data, active = GI50 up to about 1.1 µM and inactive = higher.

Key:
Assay in all cases: NCI-60 cell line screen, 48 h
IGROV-1 = tested on: IGROV-1
CAKI-1 = tested on: CAKI-1
OVCAR-3 = tested on: OVCAR-3
Malme-3M = tested on: Malme-3M
HT-29 = tested on: HT-29
EKVX = tested on: EKVX
SNB-75 = tested on: SNB-75
HCC 2998 = tested on: HCC 2998
MCF7 = tested on: MCF7
MDA-N = tested on: MDA-N
T47D = tested on: T47D
PC-3 = tested on: PC-3
MDA-MB-231 = tested on: MDA-MB-231
NCI-H226 = tested on: NCI-H226
MDA-MB-435 = tested on: MDA-MB-435
DU-145 = tested on: DU-145
Hs-578T = tested on: Hs-578T
NCI/ADR-RES = tested on: NCI/ADR-RES
BT-549 = tested on: BT-549

Row | Compound | GI50 (IGROV-1) | GI50 (CAKI-1) | GI50 (OVCAR-3) | GI50 (Malme-3M) | GI50 (HT-29) | GI50 (EKVX) | GI50 (SNB-75) | GI50 (HCC 2998) | GI50 (MCF7) | GI50 (MDA-N) | GI50 (T47D) | GI50 (PC-3) | GI50 (MDA-MB-231) | GI50 (NCI-H226) | GI50 (MDA-MB-435) | GI50 (DU-145) | GI50 (Hs-578T) | GI50 (NCI/ADR-RES) | GI50 (BT-549)
1 | O=c1[nH]cnc2c(COCCCO)c[nH]c12 | > 100 µM (inactive) | > 100 µM (inactive) | > 100 µM (inactive) | > 100 µM (inactive) | > 100 µM (inactive) | > 100 µM (inactive) | > 100 µM (inactive) |  |  |  |  |  |  |  |  |  |  |  | 
2 | CC1=C2c3ccccc3N(C(=O)/C=C/C(=O)O)[C@H]2[C@H]2C(=O)OC(=O)[C@H]2C1 | > 10 µM (inactive) | > 10 µM (inactive) | > 10 µM (inactive) | > 10 µM (inactive) | > 10 µM (inactive) | > 10 µM (inactive) | > 10 µM (inactive) | > 10 µM (inactive) | > 10 µM (inactive) | > 10 µM (inactive) | > 10 µM (inactive) | > 10 µM (inactive) | > 10 µM (inactive) | > 10 µM (inactive) | > 10 µM (inactive) | > 10 µM (inactive) | > 10 µM (inactive) | > 10 µM (inactive) | 
3 | O=c1oc(-c2ccc(O)c(O)c2)cc2cccc(O)c12 [THUNBERGINOL A] | 6.19 µM (inactive) | 6.71 µM (inactive) | 10.5 µM (inactive) | 31.3 µM (inactive) |  | 14.1 µM (inactive) | 23.1 µM (inactive) | 12.8 µM (inactive) | 9.57 µM (inactive) |  | 0.871 µM (active) | 11.1 µM (inactive) |  |  | 24.2 µM (inactive) | 23.8 µM (inactive) | 21.2 µM (inactive) | 14.6 µM (inactive) | 15.6 µM (inactive)
4 | CC12C3C4C1C1C2C3C41CO (configuration not stated) | > 100 µM (inactive) | > 100 µM (inactive) | > 100 µM (inactive) |  | > 100 µM (inactive) | > 100 µM (inactive) | 34 µM (inactive) |  | > 100 µM (inactive) | > 100 µM (inactive) |  |  | > 100 µM (inactive) | > 100 µM (inactive) | > 100 µM (inactive) | > 100 µM (inactive) |  | > 100 µM (inactive) | 
5 | Clc1ccc(CCn2ccc3ccccc32)c(Cl)c1 | > 100 µM (inactive) | > 100 µM (inactive) | > 100 µM (inactive) | > 100 µM (inactive) | > 100 µM (inactive) | > 100 µM (inactive) | > 100 µM (inactive) | > 100 µM (inactive) | > 100 µM (inactive) |  |  | > 100 µM (inactive) | > 100 µM (inactive) | > 100 µM (inactive) | > 100 µM (inactive) | > 100 µM (inactive) | > 100 µM (inactive) | > 100 µM (inactive) | > 100 µM (inactive)
6 | O=C1NC(c2cccc3ccccc23)Nc2ccccc21 (configuration not stated) | 0.0457 µM (active) | < 0.0409 µM (active) | 0.015 µM (active) | 0.0463 µM (active) |  | 0.143 µM (active) | 0.0111 µM (active) | 0.0736 µM (active) | < 0.0171 µM (active) |  |  | 0.0423 µM (active) | 0.0873 µM (active) | 0.0875 µM (active) | 0.0153 µM (active) | 0.064 µM (active) | 0.0147 µM (active) | < 0.0199 µM (active) | 0.454 µM (active)
7 | O=C(CCC(NC(=O)OCc1ccccc1)C(=O)OCc1ccccc1)Nc1cccc(OCc2ccccc2)c1 (configuration not stated) | 30.3 µM (inactive) | 31.2 µM (inactive) | 22.3 µM (inactive) | 14.5 µM (inactive) | 29.9 µM (inactive) | 35.6 µM (inactive) | 35.6 µM (inactive) | 42.7 µM (inactive) | 20.7 µM (inactive) | 32.1 µM (inactive) | 19.5 µM (inactive) | 13.2 µM (inactive) | 25.4 µM (inactive) | 29.1 µM (inactive) | 20 µM (inactive) | 28.4 µM (inactive) | 18.4 µM (inactive) | 36.2 µM (inactive) | 
8 | COc1ccc2c(c1)[n+]([O-])c(C(C)=O)c(C)[n+]2[O-] | > 100 µM (inactive) | > 100 µM (inactive) | > 100 µM (inactive) | > 100 µM (inactive) | > 100 µM (inactive) | > 100 µM (inactive) |  | > 100 µM (inactive) |  |  |  |  |  | > 100 µM (inactive) |  |  |  |  | 
9 | COc1ccc(C(=O)c2c3cc(OC)c(OC)c(OC)c3cc[n+]2C)cc1 | 34.8 µM (inactive) |  |  | 35 µM (inactive) | 30.3 µM (inactive) | 55.3 µM (inactive) | 27.9 µM (inactive) | 50.2 µM (inactive) |  |  |  |  |  | 19.7 µM (inactive) |  |  |  |  | 
10 | CN(c1ccc(C(=O)c2ccc(N(C)S(C)(=O)=O)cc2)cc1)S(C)(=O)=O |  | > 100 µM (inactive) |  | > 100 µM (inactive) | > 100 µM (inactive) | 86.5 µM (inactive) | 83.6 µM (inactive) |  |  |  |  |  |  | > 100 µM (inactive) |  |  |  |  | 
11 | OC1(CCc2ccccc2)COC(C(F)(F)F)(C(F)(F)F)C1 (configuration not stated) | > 100 µM (inactive) | > 100 µM (inactive) | > 100 µM (inactive) | > 100 µM (inactive) | > 100 µM (inactive) | > 100 µM (inactive) | > 100 µM (inactive) | > 100 µM (inactive) | > 100 µM (inactive) | > 100 µM (inactive) | > 100 µM (inactive) | > 100 µM (inactive) | > 100 µM (inactive) | > 100 µM (inactive) | > 100 µM (inactive) | > 100 µM (inactive) | > 100 µM (inactive) | > 100 µM (inactive) | 
12 | COc1ccc(Nc2nc(N)c(C(=O)c3c[nH]c4ccccc34)s2)cc1 | 1.13 µM (inactive) | 2.18 µM (inactive) | 0.745 µM (active) | 3.44 µM (inactive) | 0.583 µM (active) | 3.05 µM (inactive) | 1.57 µM (inactive) |  | 1.03 µM (active) | 0.31 µM (active) | 3.6 µM (inactive) | 2.15 µM (inactive) | 9.91 µM (inactive) | 11.1 µM (inactive) | 0.161 µM (active) | 2.2 µM (inactive) |  | 1 µM (active) | 2.43 µM (inactive)
13 | N[C@]1(C(=O)O)C[C@@H]2C(Br)=NO[C@@H]2C1 |  | > 100 µM (inactive) | > 100 µM (inactive) | > 100 µM (inactive) | > 100 µM (inactive) | 70.3 µM (inactive) | > 100 µM (inactive) | > 100 µM (inactive) | > 100 µM (inactive) |  | > 100 µM (inactive) | > 100 µM (inactive) | > 100 µM (inactive) | > 100 µM (inactive) | > 100 µM (inactive) | > 100 µM (inactive) | > 100 µM (inactive) | > 100 µM (inactive) | > 100 µM (inactive)
14 | O=C1c2ccccc2C2(c3ccc(Cl)cc3)N[C@H]3CCCC[C@@H]3N12 (some centres not stated) | > 100 µM (inactive) | > 100 µM (inactive) | > 100 µM (inactive) |  | 73.8 µM (inactive) | 78.3 µM (inactive) | > 100 µM (inactive) |  |  | > 100 µM (inactive) | > 100 µM (inactive) | > 100 µM (inactive) | > 100 µM (inactive) | 61.1 µM (inactive) | > 100 µM (inactive) | > 100 µM (inactive) | 59.2 µM (inactive) | 63 µM (inactive) | > 100 µM (inactive)
15 | O=C1Oc2ccccc2C(=O)/C1=C\NC(=S)c1ccncc1 | 67.1 µM (inactive) | 51.3 µM (inactive) | 71.6 µM (inactive) |  | > 100 µM (inactive) | > 100 µM (inactive) | 99.3 µM (inactive) | > 100 µM (inactive) | > 100 µM (inactive) | > 100 µM (inactive) | > 100 µM (inactive) | 94.4 µM (inactive) | > 100 µM (inactive) | > 100 µM (inactive) | 98.4 µM (inactive) | > 100 µM (inactive) |  | > 100 µM (inactive) | 31.6 µM (inactive)
16 | O=C(O)C(=C\c1ccc2c(c1)OCO2)/C(=C/c1ccc2c(c1)OCO2)C(=O)O | > 100 µM (inactive) | > 100 µM (inactive) | > 100 µM (inactive) | > 100 µM (inactive) | > 100 µM (inactive) |  | > 100 µM (inactive) | > 100 µM (inactive) | > 100 µM (inactive) | > 100 µM (inactive) | > 100 µM (inactive) | > 100 µM (inactive) |  | > 100 µM (inactive) | > 100 µM (inactive) | > 100 µM (inactive) | > 100 µM (inactive) | > 100 µM (inactive) | > 100 µM (inactive)
17 | COc1ccc2c(c1)-c1oc3ccccc3c(=O)c1CO2 | 25.7 µM (inactive) | 20.8 µM (inactive) | 31.3 µM (inactive) | 55.8 µM (inactive) | 31.1 µM (inactive) | 25 µM (inactive) | 31.6 µM (inactive) | 46.5 µM (inactive) | 36.9 µM (inactive) | 23.4 µM (inactive) | 29.9 µM (inactive) | 31.9 µM (inactive) | 36.3 µM (inactive) | 50.4 µM (inactive) | 25.6 µM (inactive) | 40.1 µM (inactive) |  | 29.4 µM (inactive) | 37.3 µM (inactive)
18 | CN(C)CC(CO)(CN(C)C)CN(C)C | > 100 µM (inactive) | > 100 µM (inactive) | > 100 µM (inactive) | > 100 µM (inactive) | > 100 µM (inactive) | > 100 µM (inactive) | > 100 µM (inactive) |  | > 100 µM (inactive) | > 100 µM (inactive) |  | > 100 µM (inactive) |  | > 100 µM (inactive) |  | > 100 µM (inactive) |  | > 100 µM (inactive) | > 100 µM (inactive)
19 | CN(C)N1C(=O)C(=O)N(c2cccc3ccccc23)C1=O | > 10 µM (inactive) | > 10 µM (inactive) | > 10 µM (inactive) | > 10 µM (inactive) | > 10 µM (inactive) | > 10 µM (inactive) | > 10 µM (inactive) | > 10 µM (inactive) | > 10 µM (inactive) | > 10 µM (inactive) | > 10 µM (inactive) | > 10 µM (inactive) | > 10 µM (inactive) | > 10 µM (inactive) | > 10 µM (inactive) | > 10 µM (inactive) | > 10 µM (inactive) | > 10 µM (inactive) | 
